Measurements as given in publication PMC3844181, “Studies of the Interaction between Isoimperatorin and Human Serum Albumin by Multispectroscopic Method: Identification of Possible Binding Site of the Compound Using Esterase Activity of the Protein” (The Scientific World Journal, 2013).
Values belong to the molecule of their own block, whether it stands above or below them.

Columns and labels:
[1] = biological target: T1, Human serum albumin (HSA) (Homo sapiens, UniProt P02768); assay: intrinsic Trp fluorescence quenching, modified Stern-Volmer plot; assay type: binding; settings: 298 K, 50 mM phosphate pH 7.5, 3 μM HSA, excitation 295 nm; n = 0.862; site I; double-log
T1 construct: gene ALB; mature serum albumin, 585 residues, monomer
Description: intrinsic Trp fluorescence quenching, modified Stern-Volmer plot on Human serum albumin (HSA)

[2] = biological target: T1, Human serum albumin (HSA); assay: 4-nitrophenyl acetate esterase assay; assay type: biochemical; settings: 15 μM HSA, 250 μM pNPA, 250 μM compound, site I
[3] = biological target: T1, Human serum albumin (HSA); assay: ANS fluorescence titration, Scatchard plot; assay type: binding
Description: ANS fluorescence titration, Scatchard plot on Human serum albumin (HSA)

T1 sequence (P02768 25-609): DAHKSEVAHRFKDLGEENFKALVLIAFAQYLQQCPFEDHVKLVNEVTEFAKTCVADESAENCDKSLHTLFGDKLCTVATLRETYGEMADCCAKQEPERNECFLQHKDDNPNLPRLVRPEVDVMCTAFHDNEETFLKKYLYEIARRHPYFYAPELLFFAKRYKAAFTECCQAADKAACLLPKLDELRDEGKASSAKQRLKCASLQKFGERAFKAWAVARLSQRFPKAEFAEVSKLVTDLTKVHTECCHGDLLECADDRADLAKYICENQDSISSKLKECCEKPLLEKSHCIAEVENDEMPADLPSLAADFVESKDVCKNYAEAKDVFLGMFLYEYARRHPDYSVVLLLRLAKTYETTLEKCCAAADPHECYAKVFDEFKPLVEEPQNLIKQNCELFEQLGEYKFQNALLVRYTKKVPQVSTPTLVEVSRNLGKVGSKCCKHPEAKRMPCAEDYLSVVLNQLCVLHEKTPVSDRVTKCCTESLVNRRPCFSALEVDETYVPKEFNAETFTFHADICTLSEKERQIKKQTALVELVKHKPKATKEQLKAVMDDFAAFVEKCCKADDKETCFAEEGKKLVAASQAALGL

10^-5 × K b (M^-1) [1]: (11.02 ± 0.10) × 10^5 M^-1
SMILES: CC(C)=CCOc1c2ccoc2cc2oc(=O)ccc12 [isoimperatorin, 4-[(3-methyl-2-butenyl)oxy]-7H-furo [3,2-g] [1] benzopyran-7-one]
inhibition of esterase activity ([2]; competitive): warfarin and indomethacin (as site I marker) and isoimperatorin inhibited competitively the HSA-catalyzed hydrolysis

SMILES: COc1ccc2ccc(=O)oc2c1CC=C(C)C [osthole]
inhibition of esterase activity [2]: isoimperatorin, aspirin, warfarin, indomethacin, and osthole binding sites on the HSA molecule are the same

Kd [3]: 900 ± 50 nM
SMILES: O=S(=O)(O)c1cccc2cccc(Nc3ccccc3)c12 [ANS]

SMILES: CC(=O)Oc1ccccc1C(=O)O [aspirin]
inhibition of esterase activity [2]: isoimperatorin, aspirin, warfarin, indomethacin, and osthole binding sites on the HSA molecule are the same
